Test results published in patent US7772183B2 (Bristol-Myers Squibb Company, priority 2005, dated 2010).

Tests used:
[1] = molecular target: T1, HCV NS3/4A protease complex, BMS strain (UniProt P27958, species not given/STRAIN_BMS); assay: FRET peptide assay to monitor HCV NS3/4A proteolytic activity (BMS strain); type: biochemical, Hepatitis C virus (genotype 1a); conditions: NS3/4A BMS strain; read-out: IC50 Range
T1 construct: said of H77 and J4L6S; fused on or other part: A three-lysine solubilising tail at the C-terminus of NS4A and a His tag (pET21b, Ni-NTA purification)
T1 sequence (P27958 1027-1657, change not shown, one chain of several): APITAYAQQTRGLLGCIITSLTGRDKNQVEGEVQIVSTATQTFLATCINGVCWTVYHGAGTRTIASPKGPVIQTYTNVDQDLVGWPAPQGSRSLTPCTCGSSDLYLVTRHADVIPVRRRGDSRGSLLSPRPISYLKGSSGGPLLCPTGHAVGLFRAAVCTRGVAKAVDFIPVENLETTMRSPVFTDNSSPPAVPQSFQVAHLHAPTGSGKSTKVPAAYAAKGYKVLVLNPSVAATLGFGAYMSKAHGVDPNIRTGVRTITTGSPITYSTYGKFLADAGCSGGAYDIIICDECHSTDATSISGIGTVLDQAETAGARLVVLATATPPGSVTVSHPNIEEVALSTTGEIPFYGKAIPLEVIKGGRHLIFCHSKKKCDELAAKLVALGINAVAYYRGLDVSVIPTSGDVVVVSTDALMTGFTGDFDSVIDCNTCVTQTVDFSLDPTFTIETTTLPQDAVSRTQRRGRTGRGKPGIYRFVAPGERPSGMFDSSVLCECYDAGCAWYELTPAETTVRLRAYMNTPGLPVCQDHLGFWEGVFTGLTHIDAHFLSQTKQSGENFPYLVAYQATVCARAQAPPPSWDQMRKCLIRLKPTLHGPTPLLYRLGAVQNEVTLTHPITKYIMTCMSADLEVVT
Source text: HCV NS3 protease complexes, derived from the BMS strain, H77 strain or J4L6S strain, were generated, as described below. These purified recombinant proteins were generated for use in a homogeneous assay (see below) to provide an indication of how effective compounds of the present disclosure would be in inhibiting HCV NS3 proteolytic activity.
Serum from an HCV-infected patient was obtained from Dr. T. Wright, San Francisco Hospital. An engineered full-length cDNA (compliment deoxyribonucleic acid) template of the HCV genome (BMS strain) was constructed from DNA fragments obtained by reverse transcription-PCR (RT-PCR) of serum RNA (ribonucleic acid) and using primers selected on the basis of homology between other genotype 1a strains. From the determination of the entire genome sequence, a genotype 1a was assigned to the HCV isolate according to the classification of Simmonds et al. (See P Simmonds, K A Rose, S Graham, S W Chan, F McOmish, B C Dow, E A Follett, P L Yap and H Marsden, J. Clin. Microbiol., 31(6), 1493-1503 (1993)). […] The infectious clones, H77 (1a genotype) and J4L6S (1b genotype) were obtained from R. Purcell (NIH) and the sequences are published in Genbank (AAB67036, see Yanagi, M., Purcell, R. H., Emerson, S. U. and Bukh, J. Proc. Natl. Acad. Sci. U.S.A. 94(16), 8738-8743 (1997); AF054247, see Yanagi, M., St Claire, M., Shapiro, M., Emerson, S. U., Purcell, R. H. and Bukh, J, Virology 244 (1), 161-172. (1998)).
The H77 and J4L6S strains were used for production of recombinant NS3/4A protease complexes. DNA encoding the recombinant HCV NS3/4A protease complex (amino acids 1027 to 1711) for these strains were manipulated as described by P. Gallinari et al. (see Gallinari P, Paolini C, Brennan D, Nardi C, Steinkuhler C, De Francesco R. Biochemistry. 38(17):5620-32, (1999)). Briefly, a three-lysine solubilizing tail was added at the 3′-end of the NS4A coding region. The cysteine in the P1 position of the NS4A-NS4B cleavage site (amino acid 1711) was changed to a glycine to avoid the proteolytic cleavage of the lysine tag. Furthermore, a cysteine to serine mutation was introduced by PCR at amino acid position 1454 to prevent the autolytic cleavage in the NS3 helicase domain. The variant DNA fragment was cloned in the pET21b bacterial expression vector (Novagen) and the NS3/4A complex was expressed in Escherichia coli strain BL21 (DE3) (Invitrogen) following the protocol described by P. Gallinari et al. (see Gallinari P, Brennan D, Nardi C, Brunetti M, Tomei L, Steinkuhler C, De Francesco R., J Virol. 72(8):6758-69 (1998)) with modifications. Briefly, the NS3/4A protease complex expression was induced with 0.5 mM Isopropyl β-D-1-thiogalactopyranoside (IPTG) for 22 hours (h) at 20° C. A typical fermentation (1 Liter (L)) yielded approximately 10 grams (g) of wet cell paste. The cells were resuspended in lysis buffer (10 mL/g) consisting of 25 mM N-(2-Hydroxyethyl)Piperazine-N′-(2-Ethane Sulfonic acid) (HEPES), pH 7.5, 20% glycerol, 500 mM Sodium Chloride (NaCl), 0.5% Triton X-100, 1 microgram/milliliter (“μg/mL”) lysozyme, 5 mM Magnesium Chloride (MgCl2), 1 μg/ml Dnasel, 5 mM β-Mercaptoethanol (βME), Protease inhibitor-Ethylenediamine Tetraacetic acid (EDTA) free (Roche), homogenized and incubated for 20 minutes (min) at 4° C. The homogenate was sonicated and clarified by ultra-centrifugation at 235000 g for 1 h at 4° C. Imidazole was added to the supernatant to a final concentration of 15 mM and the pH adjusted to 8.0. The crude protein extract was loaded on a Nickel-Nitrilotriacetic acid (Ni-NTA) column pre-equilibrated with buffer B (25 mM HEPES, pH 8.0, 20% glycerol, 500 mM NaCl, 0.5% Triton X-100, 15 mM imidazole, 5 mM βME). The sample was loaded at a flow rate of 1 mL/min. The column was washed with 15 column volumes of buffer C (same as buffer B except with 0.2% Triton X-100). The protein was eluted with 5 column volumes of buffer D (same as buffer C except with 200 mM Imidazole). […]

[2] = tested on: HCV replicon in HUH-7 cells; assay: HCV replicon FRET assay; type: cell-based, Hepatitis C virus (strain 1b); conditions: Hepatitis C virus, Huh-7; HCV replicon, for compounds tested; read-out: EC50 Range
Source text: An HCV replicon whole cell system was established as described by Lohmann V, Komer F, Koch J, Herian U, Theilmann L, Bartenschlager R., Science 285(5424):110-3 (1999). This system enabled us to evaluate the effects of our HCV Protease compounds on HCV RNA replication. Briefly, using the HCV strain 1b sequence described in the Lohmann paper (Assession number: AJ238799), an HCV cDNA was synthesized by Operon Technologies, Inc. (Alameda, Calif.), and the full-length replicon was then assembled in plasmid pGem9zf(+) (Promega, Madison, Wis.) using standard molecular biology techniques. The replicon consists of (i) the HCV 5′ UTR fused to the first 12 amino acids of the capsid protein, (ii) the neomycin phosphotransferase gene (neo), (iii) the IRES from encephalomyocarditis virus (EMCV), and (iv) HCV NS3 to NS5B genes and the HCV 3′ UTR. Plasmid DNAs were linearized with Scal and RNA transcripts were synthesized in vitro using the T7 MegaScript transcription kit (Ambion, Austin, Tex.) according to manufacturer's directions. In vitro transcripts of the cDNA were transfected into the human hepatoma cell line, HUH-7. […] Resulting cell lines were characterized for positive and negative strand RNA production and protein production over time.
The HCV replicon FRET assay was developed to monitor the inhibitory effects of compounds described in the disclosure on HCV viral replication. HUH-7 cells, constitutively expressing the HCV replicon, were grown in Dulbecco's Modified Eagle Media (DMEM) (Gibco-BRL) containing 10% Fetal calf serum (FCS) (Sigma) and 1 mg/ml G418 (Gibco-BRL). Cells were seeded the night before (1.5×10^4 cells/well) in 96-well tissue-culture sterile plates. Compound and no compound controls were prepared in DMEM containing 4% FCS, 1:100 Penicillin/Streptomysin (Gibco-BRL), 1:100 L-glutamine and 5% DMSO in the dilution plate (0.5% DMSO final concentration in the assay). Compound/DMSO mixes were added to the cells and incubated for 4 days at 37° C. After 4 days, cells were first assessed for cytotoxicity using alamar Blue (Trek Diagnotstic Systems) for a CC50 reading. The toxicity of compound (CC50) was determined by adding 1/10th volume of alamar Blue to the media incubating the cells. After 4 hours, the fluorescence signal from each well was read, with an excitation wavelength at 530 nm and an emission wavelength of 580 nm, using the Cytofluor Series 4000 (Perspective Biosystems). Plates were then rinsed thoroughly with Phosphate-Buffered Saline (PBS) (3 times 150 μl). The cells were lysed with 25 μl of a lysis assay reagent containing an HCV protease substrate (5× cell Luciferase cell culture lysis reagent (Promega #E153A) diluted to 1× with distilled water, NaCl added to 150 mM final, the FRET peptide substrate (as described for the enzyme assay above) diluted to 10 μM final from a 2 mM stock in 100% DMSO. […]. The plate was then placed into the Cytofluor 4000 instrument which had been set to 340 nm excitation/490 nm emission, automatic mode for 21 cycles and the plate read in a kinetic mode. EC50 determinations were carried out as described for the IC50 determinations.

CC(C)(C)OC(=O)N[C@H]1CCCCC/C=C\[C@@H]2C[C@@]2(C(=O)NS(=O)(=O)C2CC2)NC(=O)[C@@H]2C[C@@H](OC(=O)c3cc4ccccc4o3)CN2C1=O
IC50 [1]: < 0.1 µM
EC50 [2]: < 0.1 µM

CN(C)S(=O)(=O)NC(=O)[C@@]12C[C@H]1/C=C\CCCCC[C@H](NC(=O)OC(C)(C)C)C(=O)N1C[C@H](OC(=O)c3ccc4c(c3)OCCO4)C[C@H]1C(=O)N2
IC50 [1]: < 0.1 µM
EC50 [2]: < 0.1 µM

CC(C)(C)OC(=O)N[C@H]1CCCCC/C=C\[C@@H]2C[C@@]2(C(=O)NS(=O)(=O)C2CC2)NC(=O)[C@@H]2C[C@@H](OC(=O)c3cccc(F)c3)CN2C1=O
IC50 [1]: < 0.1 µM
EC50 [2]: < 0.1 µM

Cc1onc(-c2ccccc2)c1C(=O)O[C@@H]1C[C@H]2C(=O)N[C@]3(C(=O)NS(=O)(=O)C4CC4)C[C@H]3/C=C\CCCCC[C@H](NC(=O)OC(C)(C)C)C(=O)N2C1
IC50 [1]: < 0.1 µM
EC50 [2]: < 0.1 µM

CCC(C(=O)O[C@@H]1C[C@H]2C(=O)N[C@]3(C(=O)NS(=O)(=O)C4CC4)C[C@H]3/C=C\COCCC[C@H](NC(=O)OC(C)(C)C)C(=O)N2C1)c1ccccc1 (mixture of isomers) [Compound 5, 18-(2-phenylbutyryloxy)-14-tert-butoxycarbonylamino-4-cyclopropylsulfonylaminocarbonyl-2,15-dioxo-3,16-diaza-10-oxatricyclo-[14.3.0.0^4,6]-nonadec-7-ene]
IC50 [1]: < 0.1 µM
EC50 [2]: > 1 µM
melting point: 113 to 115 °C

CC(C)(C)OC(=O)N[C@H]1CCCOC/C=C\[C@@H]2C[C@@]2(C(=O)NS(=O)(=O)C2CC2)NC(=O)[C@@H]2C[C@@H](OC(=O)c3ccccc3)CN2C1=O [Compound 1, 18-benzoyloxy-14-tert-butoxycarbonylamino-4-cyclopropylsulfonylaminocarbonyl-2,15-dioxo-3,16-diaza-10-oxatricyclo[14.3.0.0^4,6]nonadec-7-ene]
IC50 [1]: < 0.1 µM
EC50 [2]: 0.1 to 1 µM
melting point: 153 to 155 °C

CCCC(C)C(=O)O[C@@H]1C[C@H]2C(=O)N[C@]3(C(=O)NS(=O)(=O)C4CC4)C[C@H]3/C=C\COCCC[C@H](NC(=O)OC(C)(C)C)C(=O)N2C1 (stereo partly shown) [Compound 2, 18-(2-methylvaleryloxy)-14-tert-butoxycarbonylamino-4-cyclopropylsulfonylaminocarbonyl-2,15-dioxo-3,16-diaza-10-oxatricyclo-[14.3.0.0^4,6]-nonadec-7-ene]
IC50 [1]: < 0.1 µM
EC50 [2]: > 1 µM
melting point: 121 to 123 °C

CC(C)(C)OC(=O)N[C@H]1COCCC/C=C\[C@@H]2C[C@@]2(C(=O)NS(=O)(=O)C2CC2)NC(=O)[C@@H]2C[C@@H](OC(=O)Nc3ccc(-c4ccccc4)cc3)CN2C1=O [Compound 39, 18-(4-biphenylaminocarbonyloxy)-14-tert-butoxycarbonylamino-4-cyclopropylsulfonylaminocarbonyl-2,15-dioxo-3,16-diaza-12-oxatricyclo-[14.3.0.0^4,6]-nonadec-7-ene]
IC50 [1]: > 1 µM
melting point: 170 to 173 °C

CC(C)(C)OC(=O)N[C@H]1COCCC/C=C\[C@@H]2C[C@@]2(C(=O)NS(=O)(=O)C2CC2)NC(=O)[C@@H]2C[C@@H](OC(=O)N3Cc4cccc(F)c4C3)CN2C1=O [Compound 46, 18-(2-[4-fluoroisoindoline]carbonyloxy)-14-tert-butoxycarbonylamino-4-cyclopropylsulfonylaminocarbonyl-2,15-dioxo-3,16-diaza-12-oxatricyclo-[14.3.0.0^4,6]-nonadec-7-ene]
IC50 [1]: < 0.1 µM
EC50 [2]: < 0.1 µM

CC(C)(C)OC(=O)N[C@H]1CCCCC/C=C\[C@@H]2C[C@@]2(C(=O)O)NC(=O)[C@@H]2C[C@@H](OC(=O)Nc3ccccc3-c3ccccc3)CN2C1=O [Compound 47]
IC50 [1]: > 1 µM

CC(C)(C)OC(=O)N[C@H]1CCCCC/C=C\[C@@H]2C[C@@]2(C(=O)NS(=O)(=O)C2CC2)NC(=O)[C@@H]2C[C@@H](OC(=O)Nc3ccccc3-c3ccccc3)CN2C1=O [Compound 48]
IC50 [1]: < 0.1 µM
EC50 [2]: < 0.1 µM

CC(C)(C)OC(=O)N[C@H]1CN(C2CC2)CCC/C=C\[C@@H]2C[C@@]2(C(=O)NS(=O)(=O)C2CC2)NC(=O)[C@@H]2C[C@@H](OC(=O)c3ccc4nccnc4c3)CN2C1=O [Compound 49]
IC50 [1]: < 0.1 µM
EC50 [2]: < 0.1 µM

CC(C)(C)OC(=O)N[C@H]1CN(C2CC2)CCC/C=C\[C@@H]2C[C@@]2(C(=O)NS(=O)(=O)C2CC2)NC(=O)[C@@H]2C[C@@H](OC(=O)N3Cc4cccc(F)c4C3)CN2C1=O [Compound 50]
IC50 [1]: < 0.1 µM
EC50 [2]: < 0.1 µM
